Measurements as given in ChEMBL document CHEMBL5113392, “Novel hybrid pyrrolidinedione-thiazolidinones as potential anticancer agents: Synthesis and biological evaluation” (Eur J Med Chem, 2022).
Activity calls are given as the source filed them. No cut-off for these calls is given here.

Legend:
HL-60 = assay: Anticancer activity against human HL-60 cells assessed as growth inhibition incubated for 48 hrs by SRB assay; format: functional
MOLT-4 = assay: Anticancer activity against human MOLT-4 cells assessed as growth inhibition incubated for 48 hrs by SRB assay; format: functional
RPMI-8226 = assay: Anticancer activity against human RPMI-8226 cells assessed as growth inhibition incubated for 48 hrs by SRB assay; format: functional
CCRF-CEM [1] = assay: Anticancer activity against human CCRF-CEM cells assessed as total growth inhibition incubated for 48 hrs by SRB assay; format: functional
NCI-H522 = assay: Anticancer activity against human NCI-H522 cells assessed as growth inhibition incubated for 48 hrs by SRB assay; format: functional
Malme-3M [2] = assay: Anticancer activity against human Malme-3M cells assessed as growth inhibition incubated for 48 hrs by SRB assay; format: functional
MDA-MB-435 = assay: Anticancer activity against human MDA-MB-435 cells assessed as growth inhibition incubated for 48 hrs by SRB assay; format: functional
SK-MEL-2 = assay: Anticancer activity against human SK-MEL-2 cells assessed as growth inhibition incubated for 48 hrs by SRB assay; format: functional
SK-MEL-5 = assay: Anticancer activity against human SK-MEL-5 cells assessed as growth inhibition incubated for 48 hrs by SRB assay; format: functional
OVCAR-3 [3] = assay: Anticancer activity against human OVCAR-3 cells assessed as growth inhibition incubated for 48 hrs by SRB assay; format: functional
SK-OV-3 = assay: Anticancer activity against human SK-OV-3 cells assessed as growth inhibition incubated for 48 hrs by SRB assay; format: functional
786-0 = assay: Anticancer activity against human 786-0 cells assessed as growth inhibition incubated for 48 hrs by SRB assay; format: functional
ACHN = assay: Anticancer activity against human ACHN cells assessed as growth inhibition incubated for 48 hrs by SRB assay; format: functional
CAKI-1 [4] = assay: Anticancer activity against human CAKI-1 cells assessed as growth inhibition incubated for 48 hrs by SRB assay; format: functional
UO-31 [5] = assay: Anticancer activity against human UO-31 cells assessed as growth inhibition incubated for 48 hrs by SRB assay; format: functional
HOP-62 = assay: Anticancer activity against human HOP-62 cells assessed as total growth inhibition incubated for 48 hrs by SRB assay; format: functional
NCI-H23 = assay: Anticancer activity against human NCI-H23 cells assessed as total growth inhibition incubated for 48 hrs by SRB assay; format: functional
HCT-116 = assay: Anticancer activity against human HCT-116 cells assessed as total growth inhibition incubated for 48 hrs by SRB assay; format: functional
HCT-15 = assay: Anticancer activity against human HCT-15 cells assessed as total growth inhibition incubated for 48 hrs by SRB assay; format: functional
Malme-3M [6] = assay: Anticancer activity against human Malme-3M cells assessed as total growth inhibition incubated for 48 hrs by SRB assay; format: functional
SK-MEL-28 = assay: Anticancer activity against human SK-MEL-28 cells assessed as total growth inhibition incubated for 48 hrs by SRB assay; format: functional
UACC-62 = assay: Anticancer activity against human UACC-62 cells assessed as total growth inhibition incubated for 48 hrs by SRB assay; format: functional
IGROV-1 = assay: Anticancer activity against human IGROV-1 cells assessed as total growth inhibition incubated for 48 hrs by SRB assay; format: functional
OVCAR-3 [7] = assay: Anticancer activity against human OVCAR-3 cells assessed as total growth inhibition incubated for 48 hrs by SRB assay; format: functional
OVCAR-4 = assay: Anticancer activity against human OVCAR-4 cells assessed as total growth inhibition incubated for 48 hrs by SRB assay; format: functional
NCI/ADR-RES = assay: Anticancer activity against human NCI/ADR-RES cells assessed as total growth inhibition incubated for 48 hrs by SRB assay; format: functional
CAKI-1 [8] = assay: Anticancer activity against human CAKI-1 cells assessed as total growth inhibition incubated for 48 hrs by SRB assay; format: functional
UO-31 [9] = assay: Anticancer activity against human UO-31 cells assessed as total growth inhibition incubated for 48 hrs by SRB assay; format: functional
PC-3 = assay: Anticancer activity against human PC-3 cells assessed as total growth inhibition incubated for 48 hrs by SRB assay; format: functional
MDA-MB-231 = assay: Anticancer activity against human MDA-MB-231 cells assessed as total growth inhibition incubated for 48 hrs by SRB assay; format: functional
CCRF-CEM [10] = assay: Anticancer activity against human CCRF-CEM cells assessed as lethality incubated for 48 hrs by SRB assay; format: functional; conditions: read-out: LC50 (the source's name)
A549 = assay: Anticancer activity against human A549 cells assessed as lethality incubated for 48 hrs by SRB assay; format: functional; conditions: read-out: LC50 (the source's name)
NCI-H322M = assay: Anticancer activity against human NCI-H322M cells assessed as lethality incubated for 48 hrs by SRB assay; format: functional; conditions: read-out: LC50 (the source's name)
HCC 2998 = assay: Anticancer activity against human HCC 2998 cells assessed as lethality incubated for 48 hrs by SRB assay; format: functional; conditions: read-out: LC50 (the source's name)
SW-620 = assay: Anticancer activity against human SW-620 cells assessed as lethality incubated for 48 hrs by SRB assay; format: functional; conditions: read-out: LC50 (the source's name)
U-251 = assay: Anticancer activity against human U-251 cells assessed as lethality incubated for 48 hrs by SRB assay; format: functional; conditions: read-out: LC50 (the source's name)
Malme-3M [11] = assay: Anticancer activity against human Malme-3M cells assessed as lethality incubated for 48 hrs by SRB assay; format: functional; conditions: read-out: LC50 (the source's name)
SN12C = assay: Anticancer activity against human SN12C cells assessed as lethality incubated for 48 hrs by SRB assay; format: functional; conditions: read-out: LC50 (the source's name)
Hs-578T = assay: Anticancer activity against human Hs-578T cells assessed as lethality incubated for 48 hrs by SRB assay; format: functional; conditions: read-out: LC50 (the source's name)
BT-549 = assay: Anticancer activity against human BT-549 cells assessed as lethality incubated for 48 hrs by SRB assay; format: functional; conditions: read-out: LC50 (the source's name)
T47D = assay: Anticancer activity against human T47D cells assessed as lethality incubated for 48 hrs by SRB assay; format: functional; conditions: read-out: LC50 (the source's name)
MDA-MB-468 = assay: Anticancer activity against human MDA-MB-468 cells assessed as lethality incubated for 48 hrs by SRB assay; format: functional; conditions: read-out: LC50 (the source's name)
Jurkat [12] = assay: Anticancer activity against human Jurkat cells assessed as cell growth inhibition incubated for 72 hrs by MTT assay; format: functional
[13] = Cytotoxicity against human HaCaT cells assessed as cell growth inhibition incubated for 72 hrs by MTT assay; format: toxicity, cell-based
Jurkat [14] = assay: Induction of morphological changes in human Jurkat cells assessed as change in cell shape incubated for 24 hrs by Hoechst 33258 and propidium iodide staining based fluorescence microscopy; format: functional
Lymphocyte = assay: Induction of morphological changes in mitogen activated human peripheral blood lymphocytes assessed as increase in necrotic cells incubated for 24 hrs by Hoechst 33258 and propidium iodide staining based fluorescence microscopy; format: toxicity, cell-based
Salmon testes DNA [15] = assay: Displacement of methyl green from salmon sperm DNA at 1 uM measured after 2 hrs by fluorescence plate reader method relative to control; format: nucleic-acid assay; conditions: Salmo salar
Salmon testes DNA [16] = assay: Displacement of methyl green from salmon sperm DNA at 10 uM measured after 2 hrs by fluorescence plate reader method relative to control; format: nucleic-acid assay; conditions: Salmo salar
LOX IMVI = assay: Anticancer activity against human LOX IMVI cells assessed as inhibition of cell growth at 10 uM incubated for 48 hrs by SRB assay; values are per cent of control

Structure (SMILES): O=C1CC(N2C(=O)/C(=C/C(Cl)=C/c3ccc([N+](=O)[O-])cc3)SC2=S)C(=O)N1c1ccc(Cl)cc1 (stereo not drawn)
- GI50 (HL-60): 1.45 µM
- GI50 (MOLT-4): 0.596 µM
- GI50 (RPMI-8226): 0.303 µM
- TGI (CCRF-CEM [1]): 12.4 µM
- GI50 (NCI-H522): 1.73 µM
- GI50 (Malme-3M [2]): 3.09 µM
- GI50 (MDA-MB-435): 1.65 µM
- GI50 (SK-MEL-2): 3.12 µM
- GI50 (SK-MEL-5): 1.95 µM
- GI50 (OVCAR-3 [3]): 0.721 µM
- GI50 (SK-OV-3): 3.56 µM
- GI50 (786-0): 1.63 µM
- GI50 (ACHN): 1.34 µM
- GI50 (CAKI-1 [4]): 1.13 µM
- GI50 (UO-31 [5]): 1.07 µM
- TGI (HOP-62): 5.5 µM
- TGI (NCI-H23): 4.31 µM
- TGI (HCT-116): 3.04 µM
- TGI (HCT-15): 8.2 µM
- TGI (Malme-3M [6]): 11.6 µM
- TGI (SK-MEL-28): 4.02 µM
- TGI (UACC-62): 4.3 µM
- TGI (IGROV-1): 3.26 µM
- TGI (OVCAR-3 [7]): 2.62 µM
- TGI (OVCAR-4): > 100 µM
- TGI (NCI/ADR-RES): 6.19 µM
- TGI (CAKI-1 [8]): 3.28 µM
- TGI (UO-31 [9]): 3.3 µM
- TGI (PC-3): 4.15 µM
- TGI (MDA-MB-231): 47.8 µM
- CC50 (CCRF-CEM [10]): > 100 µM
- CC50 (A549): > 100 µM
- CC50 (NCI-H322M): > 100 µM
- CC50 (HCC 2998): 5.76 µM
- CC50 (SW-620): > 100 µM
- CC50 (U-251): 14.1 µM
- CC50 (Malme-3M [11]): > 100 µM
- CC50 (SN12C): > 100 µM
- CC50 (Hs-578T): > 100 µM
- CC50 (BT-549): 8 µM
- CC50 (T47D): > 100 µM
- CC50 (MDA-MB-468): 7.22 µM
- GI50 (Jurkat [12]): 3.4 µM
- GI50 at 72 h [13]: > 100 µM
- Activity (Jurkat [14]): Active
- Activity (Lymphocyte): Toxic
- Activity (Salmon testes DNA [15]): 4.3%
- Activity (Salmon testes DNA [16]): 7.9%
- growth percent at 10 µM (LOX IMVI): -71.7%

Structure (SMILES): O=C1CC(N2C(=O)/C(=C/C(Cl)=C/c3ccc([N+](=O)[O-])cc3)SC2=S)C(=O)N1c1ccc(O)cc1 (stereo not drawn)
- GI50 (HL-60): 2.44 µM
- GI50 (MOLT-4): 0.534 µM
- GI50 (RPMI-8226): 0.295 µM
- TGI (CCRF-CEM [1]): 3.87 µM
- GI50 (NCI-H522): 1.86 µM
- GI50 (Malme-3M [2]): 2.31 µM
- GI50 (MDA-MB-435): 2.01 µM
- GI50 (SK-MEL-2): 2.74 µM
- GI50 (SK-MEL-5): 1.92 µM
- GI50 (OVCAR-3 [3]): 0.604 µM
- GI50 (SK-OV-3): 2.99 µM
- GI50 (786-0): 1.23 µM
- GI50 (ACHN): 1.36 µM
- GI50 (CAKI-1 [4]): 1.15 µM
- GI50 (UO-31 [5]): 1.35 µM
- TGI (HOP-62): 6.63 µM
- TGI (NCI-H23): 3.52 µM
- TGI (HCT-116): 2.14 µM
- TGI (HCT-15): 1.95 µM
- TGI (Malme-3M [6]): 5.79 µM
- TGI (SK-MEL-28): 4.2 µM
- TGI (UACC-62): 3.38 µM
- TGI (IGROV-1): 2.68 µM
- TGI (OVCAR-3 [7]): 1.96 µM
- TGI (OVCAR-4): 17.3 µM
- TGI (NCI/ADR-RES): 12.1 µM
- TGI (CAKI-1 [8]): 2.42 µM
- TGI (UO-31 [9]): 2.79 µM
- TGI (PC-3): 2.87 µM
- TGI (MDA-MB-231): 5.06 µM
- CC50 (CCRF-CEM [10]): > 100 µM
- CC50 (A549): 50.8 µM
- CC50 (NCI-H322M): 24.3 µM
- CC50 (HCC 2998): 5.76 µM
- CC50 (SW-620): 6.3 µM
- CC50 (U-251): 6.53 µM
- CC50 (Malme-3M [11]): 21 µM
- CC50 (SN12C): 24.6 µM
- CC50 (Hs-578T): > 100 µM
- CC50 (BT-549): 8.72 µM
- CC50 (T47D): > 100 µM
- CC50 (MDA-MB-468): > 100 µM
- GI50 (Jurkat [12]): 1.3 µM
- GI50 at 72 h [13]: 73.6 µM
- Activity (Jurkat [14]): Active
- Activity (Lymphocyte): Toxic
- Activity (Salmon testes DNA [15]): 1.4%
- Activity (Salmon testes DNA [16]): 6.2%
- growth percent at 10 µM (LOX IMVI): -83.7%
